Experiments:
[1] = target: Sodium/potassium-transporting ATPase (Sus scrofa) (UniProt P05027+P05024+D2WKD8+D2WKD7+F1ST41); assay: ATPase (Na+/K+) Eurofins-Cerep enzyme and uptake assay; format: protein-complex assay; details: Compound concentration 10.0 uM
[2] = target: Adenosine receptor A1 (Homo sapiens) (UniProt P30542); assay: A1 (h) Eurofins-Cerep binding assay; set-up: ligand concentration 1 nM; details: filed as antagonist, Compound concentration 10.0 uM
[3] = target: B2 bradykinin receptor (Homo sapiens) (UniProt P30411); assay: B2 (h) Eurofins-Cerep binding assay; set-up: ligand concentration 0.3 nM; details: filed as agonist, Compound concentration 10.0 uM
[4] = target: Melatonin receptor type 1B (Homo sapiens) (UniProt P49286); assay: MT2 (ML1B) (h) Eurofins-Cerep binding assay; set-up: ligand concentration 0.05 nM; details: filed as agonist, Compound concentration 10.0 uM
[5] = target: Substance-P receptor (Homo sapiens) (UniProt P25103); assay: NK1 (h) Eurofins-Cerep binding assay; set-up: ligand concentration 0.05 nM; details: filed as agonist, Compound concentration 10.0 uM
Chain of Substance-P receptor (Homo sapiens) (P25103 whole entry): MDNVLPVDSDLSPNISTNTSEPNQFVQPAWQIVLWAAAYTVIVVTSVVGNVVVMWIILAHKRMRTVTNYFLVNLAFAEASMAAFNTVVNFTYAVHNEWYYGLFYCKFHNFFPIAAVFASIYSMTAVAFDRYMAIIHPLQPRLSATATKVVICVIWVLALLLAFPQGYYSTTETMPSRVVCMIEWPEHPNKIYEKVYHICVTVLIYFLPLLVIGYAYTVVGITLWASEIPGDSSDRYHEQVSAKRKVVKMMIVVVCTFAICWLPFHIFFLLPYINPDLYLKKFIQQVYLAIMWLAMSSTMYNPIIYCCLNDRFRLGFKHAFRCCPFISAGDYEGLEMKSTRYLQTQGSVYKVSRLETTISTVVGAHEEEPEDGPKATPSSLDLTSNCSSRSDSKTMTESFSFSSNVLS

[6] = target: P2X receptor (Rattus norvegicus) (UniProt P51579+P49653+P51578+Q64663+P47824+P51577+P49654); assay: P2X Eurofins-Cerep binding assay; format: protein assay; set-up: ligand concentration 3 nM; details: filed as agonist, Compound concentration 10.0 uM
[7] = target: Sulfonylurea receptors; K-ATP channels (Rattus norvegicus) (UniProt Q63563+P70673+Q63664+Q09429); assay: KATP channel Eurofins-Cerep binding assay; format: protein-complex assay; details: filed as antagonist, Compound concentration 10.0 uM
[8] = target: voltage-gated Na+ channel (site 2) (Rattus norvegicus, UniProt F1LQQ7+O08562+O88420+O88457+P04774+P04775+P08104+P15389+P15390+Q62968); assay: Na+ channel (site 2) Eurofins-Cerep binding assay; set-up: incubation time 60 min, incubation temperature 37°C, ligand concentration 10 nM; details: rat cerebral cortex (source of protein), probe [3H]batrachotoxin (10 nM), compound concentration 10 uM, read-out: % Inhibition of Control Specific Binding (Mean n=2)
[9] = target: RAC-alpha serine/threonine-protein kinase (Homo sapiens) (UniProt P31749); details: Compound concentration 1000.0 nM
[10] = target: Calcium/calmodulin-dependent protein kinase type II subunit beta (Homo sapiens) (UniProt Q13554); details: Compound concentration 1000.0 nM
[11] = target: Cyclin-dependent kinase 3 (Homo sapiens) (UniProt Q00526); details: Compound concentration 1000.0 nM
Chain of Cyclin-dependent kinase 3 (Homo sapiens) (Q00526 whole entry, looked up): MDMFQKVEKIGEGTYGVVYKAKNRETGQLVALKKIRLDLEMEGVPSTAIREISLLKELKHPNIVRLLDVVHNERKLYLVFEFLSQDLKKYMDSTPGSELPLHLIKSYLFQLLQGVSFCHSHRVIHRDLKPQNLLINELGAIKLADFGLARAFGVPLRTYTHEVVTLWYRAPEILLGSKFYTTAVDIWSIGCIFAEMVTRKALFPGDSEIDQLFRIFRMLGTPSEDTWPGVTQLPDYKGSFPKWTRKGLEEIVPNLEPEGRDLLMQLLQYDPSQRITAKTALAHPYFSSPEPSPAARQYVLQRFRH

[12] = target: Tyrosine-protein kinase CSK (Homo sapiens) (UniProt P41240); details: Compound concentration 1000.0 nM
[13] = target: Casein kinase I isoform epsilon (Homo sapiens) (UniProt P49674); details: Compound concentration 1000.0 nM
Chain of Casein kinase I isoform epsilon (Homo sapiens) (P49674 whole entry, looked up, canonical isoform): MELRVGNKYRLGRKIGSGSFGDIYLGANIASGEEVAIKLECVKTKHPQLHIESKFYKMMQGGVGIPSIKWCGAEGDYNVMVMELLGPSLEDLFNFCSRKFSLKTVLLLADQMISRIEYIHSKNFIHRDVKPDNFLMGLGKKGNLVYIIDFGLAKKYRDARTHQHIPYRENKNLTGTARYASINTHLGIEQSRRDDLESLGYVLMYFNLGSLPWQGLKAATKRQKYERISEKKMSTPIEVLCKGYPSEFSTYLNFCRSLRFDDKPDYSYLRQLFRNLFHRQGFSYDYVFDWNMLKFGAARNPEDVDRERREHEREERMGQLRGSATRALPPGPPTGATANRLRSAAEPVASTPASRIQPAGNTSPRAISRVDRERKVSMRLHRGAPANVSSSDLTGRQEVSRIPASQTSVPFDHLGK

[14] = target: Casein kinase II subunit alpha' (Homo sapiens) (UniProt P19784); details: Compound concentration 1000.0 nM
[15] = target: Discoidin domain-containing receptor 2 (Homo sapiens) (UniProt Q16832); details: Compound concentration 1000.0 nM
[16] = target: Dual specificity tyrosine-phosphorylation-regulated kinase 2 (Homo sapiens) (UniProt Q92630); details: Compound concentration 1000.0 nM
[17] = system: Epidermal growth factor receptor (Homo sapiens), P00533 [G719C]; details: Compound concentration 1000.0 nM
[18] = system: Epidermal growth factor receptor (Homo sapiens), P00533 [T790M]; details: Compound concentration 1000.0 nM
[19] = target: Ephrin type-A receptor 2 (Homo sapiens) (UniProt P29317); details: Compound concentration 1000.0 nM
[20] = target: Ephrin type-A receptor 6 (Homo sapiens) (UniProt Q9UF33); details: Compound concentration 1000.0 nM
[21] = target: Mitogen-activated protein kinase 15 (Homo sapiens) (UniProt Q8TD08); details: Compound concentration 1000.0 nM
[22] = target: Fibroblast growth factor receptor 3 (Homo sapiens) (UniProt P22607); details: Compound concentration 1000.0 nM
[23] = system: Receptor-type tyrosine-protein kinase FLT3 (Homo sapiens), P36888 [N841I]; details: Compound concentration 1000.0 nM
[24] = target: Vascular endothelial growth factor receptor 3 (Homo sapiens) (UniProt P35916); details: Compound concentration 1000.0 nM
[25] = target: Cyclin-G-associated kinase (Homo sapiens) (UniProt O14976); details: Compound concentration 1000.0 nM
[26] = system: eIF-2-alpha kinase GCN2 (Homo sapiens), Q9P2K8 [S808G]; details: Compound concentration 1000.0 nM
Chain of eIF-2-alpha kinase GCN2 (Homo sapiens), Q9P2K8 [S808G] (Q9P2K8 whole entry S808G): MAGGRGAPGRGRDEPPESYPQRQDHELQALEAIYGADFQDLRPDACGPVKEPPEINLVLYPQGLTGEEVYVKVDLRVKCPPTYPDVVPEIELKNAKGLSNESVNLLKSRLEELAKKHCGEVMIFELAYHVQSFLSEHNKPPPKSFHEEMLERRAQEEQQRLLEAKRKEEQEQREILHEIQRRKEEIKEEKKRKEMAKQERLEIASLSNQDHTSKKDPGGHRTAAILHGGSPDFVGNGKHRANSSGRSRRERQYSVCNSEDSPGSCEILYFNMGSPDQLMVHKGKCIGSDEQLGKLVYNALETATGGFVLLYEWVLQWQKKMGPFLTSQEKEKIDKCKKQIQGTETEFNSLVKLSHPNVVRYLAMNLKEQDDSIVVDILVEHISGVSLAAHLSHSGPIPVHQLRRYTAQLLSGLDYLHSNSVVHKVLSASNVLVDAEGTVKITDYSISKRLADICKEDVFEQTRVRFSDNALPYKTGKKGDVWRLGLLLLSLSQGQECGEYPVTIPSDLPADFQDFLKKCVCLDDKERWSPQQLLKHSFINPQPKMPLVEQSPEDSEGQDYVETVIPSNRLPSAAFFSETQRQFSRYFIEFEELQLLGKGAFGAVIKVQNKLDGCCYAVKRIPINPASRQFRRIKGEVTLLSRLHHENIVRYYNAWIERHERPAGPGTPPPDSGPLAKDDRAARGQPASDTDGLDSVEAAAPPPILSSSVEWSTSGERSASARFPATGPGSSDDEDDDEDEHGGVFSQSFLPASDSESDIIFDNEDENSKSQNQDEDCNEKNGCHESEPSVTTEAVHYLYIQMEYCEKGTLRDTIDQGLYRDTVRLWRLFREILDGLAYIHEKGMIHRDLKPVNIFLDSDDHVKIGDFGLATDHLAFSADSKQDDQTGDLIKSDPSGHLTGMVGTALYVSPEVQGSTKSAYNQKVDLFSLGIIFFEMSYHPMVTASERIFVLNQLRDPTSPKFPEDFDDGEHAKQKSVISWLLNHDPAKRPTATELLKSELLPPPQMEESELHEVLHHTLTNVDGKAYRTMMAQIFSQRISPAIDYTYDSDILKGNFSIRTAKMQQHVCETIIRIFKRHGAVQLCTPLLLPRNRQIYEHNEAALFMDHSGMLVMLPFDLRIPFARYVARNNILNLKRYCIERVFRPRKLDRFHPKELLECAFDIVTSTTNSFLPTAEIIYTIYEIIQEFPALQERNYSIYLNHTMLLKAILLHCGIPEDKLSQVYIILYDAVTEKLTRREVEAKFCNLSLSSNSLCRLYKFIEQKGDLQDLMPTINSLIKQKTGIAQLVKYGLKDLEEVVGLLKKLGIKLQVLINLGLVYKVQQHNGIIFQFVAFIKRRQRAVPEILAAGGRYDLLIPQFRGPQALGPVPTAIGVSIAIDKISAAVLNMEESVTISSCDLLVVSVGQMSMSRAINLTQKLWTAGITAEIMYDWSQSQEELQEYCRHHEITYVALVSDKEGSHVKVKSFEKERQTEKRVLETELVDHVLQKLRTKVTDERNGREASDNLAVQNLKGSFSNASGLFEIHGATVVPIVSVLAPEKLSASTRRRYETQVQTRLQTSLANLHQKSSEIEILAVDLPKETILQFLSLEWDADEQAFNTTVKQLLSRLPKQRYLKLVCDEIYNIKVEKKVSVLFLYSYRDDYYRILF

[27] = target: Homeodomain-interacting protein kinase 1 (Homo sapiens) (UniProt Q86Z02); details: Compound concentration 1000.0 nM
[28] = system: Mast/stem cell growth factor receptor Kit (Homo sapiens), P10721 [V559D]; details: Compound concentration 1000.0 nM
Chain of Mast/stem cell growth factor receptor Kit (Homo sapiens), P10721 [V559D] (P10721 whole entry V559D): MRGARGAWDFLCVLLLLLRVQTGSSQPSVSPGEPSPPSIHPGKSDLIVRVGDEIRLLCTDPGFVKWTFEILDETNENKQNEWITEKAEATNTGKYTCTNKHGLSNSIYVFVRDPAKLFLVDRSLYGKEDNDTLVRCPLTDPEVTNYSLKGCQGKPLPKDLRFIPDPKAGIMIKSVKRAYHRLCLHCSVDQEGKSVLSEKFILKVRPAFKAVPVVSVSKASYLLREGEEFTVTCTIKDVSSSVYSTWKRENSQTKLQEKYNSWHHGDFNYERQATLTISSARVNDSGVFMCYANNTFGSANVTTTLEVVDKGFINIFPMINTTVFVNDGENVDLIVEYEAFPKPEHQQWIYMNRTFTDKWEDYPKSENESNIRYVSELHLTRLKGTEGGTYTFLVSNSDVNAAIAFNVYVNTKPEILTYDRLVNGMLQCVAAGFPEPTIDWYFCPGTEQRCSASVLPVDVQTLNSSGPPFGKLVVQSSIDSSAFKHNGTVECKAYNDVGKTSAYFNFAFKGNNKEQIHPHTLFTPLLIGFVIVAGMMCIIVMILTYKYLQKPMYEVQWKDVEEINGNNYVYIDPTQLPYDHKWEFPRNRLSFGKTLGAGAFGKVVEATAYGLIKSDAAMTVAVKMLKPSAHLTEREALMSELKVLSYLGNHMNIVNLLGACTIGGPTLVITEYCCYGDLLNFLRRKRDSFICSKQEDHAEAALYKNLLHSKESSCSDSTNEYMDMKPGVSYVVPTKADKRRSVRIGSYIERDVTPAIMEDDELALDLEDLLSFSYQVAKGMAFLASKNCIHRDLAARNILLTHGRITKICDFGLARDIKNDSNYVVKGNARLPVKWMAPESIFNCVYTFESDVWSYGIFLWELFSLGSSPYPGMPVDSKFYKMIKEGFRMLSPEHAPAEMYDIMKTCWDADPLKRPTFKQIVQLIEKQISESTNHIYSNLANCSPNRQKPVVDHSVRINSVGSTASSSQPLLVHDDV

[29] = target: Dual specificity mitogen-activated protein kinase kinase 4 (Homo sapiens) (UniProt P45985); details: Compound concentration 1000.0 nM
[30] = target: Tyrosine-protein kinase Mer (Homo sapiens) (UniProt Q12866); details: Compound concentration 1000.0 nM
[31] = target: Serine/threonine-protein kinase mTOR (Homo sapiens) (UniProt P42345); details: Compound concentration 1000.0 nM
[32] = target: Serine/threonine-protein kinase Nek1 (Homo sapiens) (UniProt Q96PY6); details: Compound concentration 1000.0 nM
Chain of Serine/threonine-protein kinase Nek1 (Homo sapiens) (Q96PY6 whole entry): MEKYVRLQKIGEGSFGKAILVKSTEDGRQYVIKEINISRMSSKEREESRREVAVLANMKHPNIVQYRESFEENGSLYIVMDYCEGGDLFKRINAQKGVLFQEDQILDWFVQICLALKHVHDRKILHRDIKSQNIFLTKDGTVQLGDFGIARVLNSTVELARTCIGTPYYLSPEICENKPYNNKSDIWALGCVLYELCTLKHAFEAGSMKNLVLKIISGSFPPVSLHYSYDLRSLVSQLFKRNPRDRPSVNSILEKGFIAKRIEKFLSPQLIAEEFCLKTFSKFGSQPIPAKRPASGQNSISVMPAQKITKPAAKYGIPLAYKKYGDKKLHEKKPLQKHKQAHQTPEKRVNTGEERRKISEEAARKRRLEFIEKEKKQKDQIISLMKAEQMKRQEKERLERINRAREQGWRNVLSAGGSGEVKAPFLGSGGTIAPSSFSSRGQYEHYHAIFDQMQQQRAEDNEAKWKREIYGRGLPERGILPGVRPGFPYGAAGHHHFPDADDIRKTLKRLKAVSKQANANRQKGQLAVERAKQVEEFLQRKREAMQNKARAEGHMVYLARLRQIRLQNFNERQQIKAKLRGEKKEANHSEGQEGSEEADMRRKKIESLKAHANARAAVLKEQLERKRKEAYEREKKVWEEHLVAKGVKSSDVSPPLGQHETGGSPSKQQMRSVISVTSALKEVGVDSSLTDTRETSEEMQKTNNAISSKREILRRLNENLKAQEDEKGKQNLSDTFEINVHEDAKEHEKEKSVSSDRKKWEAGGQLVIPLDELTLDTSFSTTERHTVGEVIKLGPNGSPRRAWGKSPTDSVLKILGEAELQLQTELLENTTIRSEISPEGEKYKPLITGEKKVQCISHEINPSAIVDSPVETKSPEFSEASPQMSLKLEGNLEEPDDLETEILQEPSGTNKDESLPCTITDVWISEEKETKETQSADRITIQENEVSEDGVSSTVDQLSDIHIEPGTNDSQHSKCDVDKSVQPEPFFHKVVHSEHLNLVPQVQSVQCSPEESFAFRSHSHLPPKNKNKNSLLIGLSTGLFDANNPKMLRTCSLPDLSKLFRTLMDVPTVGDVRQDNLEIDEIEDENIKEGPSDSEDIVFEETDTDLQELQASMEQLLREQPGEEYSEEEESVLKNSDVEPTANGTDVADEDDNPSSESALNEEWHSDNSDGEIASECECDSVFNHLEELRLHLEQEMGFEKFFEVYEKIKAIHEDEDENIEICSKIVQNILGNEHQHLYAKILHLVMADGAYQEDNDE

[33] = target: Serine/threonine-protein kinase Nek11 (Homo sapiens) (UniProt Q8NG66); details: Compound concentration 1000.0 nM
[34] = system: Phosphatidylinositol 4,5-bisphosphate 3-kinase catalytic subunit alpha isoform (Homo sapiens), P42336 [E545K]; details: Compound concentration 1000.0 nM
[35] = system: Phosphatidylinositol 4,5-bisphosphate 3-kinase catalytic subunit alpha isoform (Homo sapiens), P42336 [M1043I]; details: Compound concentration 1000.0 nM
[36] = target: Rho-associated protein kinase 2 (Homo sapiens) (UniProt O75116); details: Compound concentration 1000.0 nM
[37] = target: Ribosomal protein S6 kinase alpha-6 (Homo sapiens) (UniProt Q9UK32); details: Compound concentration 1000.0 nM
[38] = target: SNF-related serine/threonine-protein kinase (Homo sapiens) (UniProt Q9NRH2); details: Compound concentration 1000.0 nM
[39] = target: Serine/threonine-protein kinase TAO1 (Homo sapiens) (UniProt Q7L7X3); details: Compound concentration 1000.0 nM
[40] = target: TGF-beta receptor type-2 (Homo sapiens) (UniProt P37173); details: Compound concentration 1000.0 nM
[41] = target: Angiopoietin-1 receptor (Homo sapiens) (UniProt Q02763); details: Compound concentration 1000.0 nM
[42] = target: Serine/threonine-protein kinase 32A (Homo sapiens) (UniProt Q8WU08); details: Compound concentration 1000.0 nM

Compound CCCOc1ccc([C@H]2[C@H](C(=O)O)[C@@H](c3ccc4c(c3)OCO4)CN2CC(=O)Nc2c(CC)cccc2CC)cc1 [A-192621] has a % Inhibition of Control Values (Mean n=2) [1] of 0.7%, a % Inhibition of Control Specific Binding (Mean n=2) [2] of 8.3% and a % Inhibition of Control Specific Binding (Mean n=2) [3] of -8.6%. For the same compound, the % Inhibition of Control Specific Binding (Mean n=2) [4] was 2.4%, the % Inhibition of Control Specific Binding (Mean n=2) [5] was 36.7% and the % Inhibition of Control Specific Binding (Mean n=2) [6] was -2.8%. It also gave a % Inhibition of Control Specific Binding (Mean n=2) [7] of 11.1%, an inhibition at 60 min, 10 µM [8] of 29.1% and a residual activity [9] of 97%. The residual activity [10] was 99%, the residual activity [11] was 95% and the residual activity [12] was 80%. For the same compound, the residual activity [13] was 100%, the residual activity [14] was 87% and the residual activity [15] was 71%. It also gave a residual activity [16] of 74%, a residual activity [17] of 95% and a residual activity [18] of 82%. For the same compound, the residual activity [19] was 100%, the residual activity [20] was 100% and the residual activity [21] was 100%. It also gave a residual activity [22] of 100%, a residual activity [23] of 93% and a residual activity [24] of 90%. The residual activity [25] was 93%, the residual activity [26] was 90% and the residual activity [27] was 75%. The residual activity [28] was 87%, the residual activity [29] was 80% and the residual activity [30] was 87%. For the same compound, the residual activity [31] was 77%, the residual activity [32] was 87% and the residual activity [33] was 59%. The residual activity [34] was 61%, the residual activity [35] was 91% and the residual activity [36] was 69%. The residual activity [37] was 77%, the residual activity [38] was 84% and the residual activity [39] was 84%. For the same compound, the residual activity [40] was 95%, the residual activity [41] was 100% and the residual activity [42] was 93%.
CCCOc1ccc([C@@H]2[C@@H](C(=O)O)[C@H](c3ccc4c(c3)OCO4)CN2CC(=O)Nc2c(CC)cccc2CC)cc1 [A-1806262] was tested, and the % Inhibition of Control Values (Mean n=2) [1] was 0.6%, the % Inhibition of Control Specific Binding (Mean n=2) [2] was 4.2% and the % Inhibition of Control Specific Binding (Mean n=2) [3] was -12.3%. The % Inhibition of Control Specific Binding (Mean n=2) [4] was -3.1%, the % Inhibition of Control Specific Binding (Mean n=2) [5] was 32.2% and the % Inhibition of Control Specific Binding (Mean n=2) [6] was 13.4%. It also gave a % Inhibition of Control Specific Binding (Mean n=2) [7] of 6%, an inhibition at 60 min, 10 µM [8] of 24.4% and a residual activity [9] of 100%. For the same compound, the residual activity [10] was 88%, the residual activity [11] was 100% and the residual activity [12] was 91%. The residual activity [13] was 98%, the residual activity [14] was 83% and the residual activity [15] was 74%. For the same compound, the residual activity [16] was 92%, the residual activity [17] was 98% and the residual activity [18] was 93%. The residual activity [19] was 100%, the residual activity [20] was 98% and the residual activity [21] was 100%. The residual activity [22] was 100%, the residual activity [23] was 88% and the residual activity [24] was 100%. The residual activity [25] was 98%, the residual activity [26] was 100% and the residual activity [27] was 79%. For the same compound, the residual activity [28] was 93%, the residual activity [29] was 83% and the residual activity [30] was 97%. For the same compound, the residual activity [31] was 100%, the residual activity [32] was 100% and the residual activity [33] was 81%. It also gave a residual activity [34] of 68%, a residual activity [35] of 91% and a residual activity [36] of 84%. It also gave a residual activity [37] of 76%, a residual activity [38] of 87% and a residual activity [39] of 100%. It also gave a residual activity [40] of 96%, a residual activity [41] of 86% and a residual activity [42] of 85%.

From ChEMBL document CHEMBL4507261, “Data for DCP probe A-192621” (2021)
